Reference: patent publication US8461329B2, “Isoquinoline derivative” (Taisho Pharmaceutical Co., Ltd., priority 2008, dated 2013)
Where a name gives a salt, the structure may show the parent alone.

Molecular target: T1, CRTH2 (KB8 cells) (Homo sapiens, UniProt Q9Y5Y4)
T1 construct: host or cells: KB8 cells (human CRTH2 expression cell)
T1 sequence (Q9Y5Y4 1-395): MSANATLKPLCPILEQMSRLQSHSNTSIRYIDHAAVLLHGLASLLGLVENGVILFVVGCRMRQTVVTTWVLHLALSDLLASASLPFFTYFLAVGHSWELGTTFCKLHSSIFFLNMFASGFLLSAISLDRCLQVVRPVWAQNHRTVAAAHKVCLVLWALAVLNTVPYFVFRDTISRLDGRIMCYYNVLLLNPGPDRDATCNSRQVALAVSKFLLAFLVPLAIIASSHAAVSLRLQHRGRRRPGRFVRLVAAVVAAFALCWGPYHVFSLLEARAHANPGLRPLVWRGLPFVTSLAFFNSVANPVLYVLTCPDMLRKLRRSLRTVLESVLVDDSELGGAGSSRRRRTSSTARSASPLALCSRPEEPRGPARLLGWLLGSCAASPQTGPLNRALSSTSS
Test: CRTH2 antagonist test (PGD2-induced intracellular calcium ion concentration increase in KB8 cells)
Type: cell-based
Details: PGD2 100 nM, Fluo-4 calcium fluorescence, read-out: CRTH2 antagonist activity IC50 value
Experimental: The antagonist activity of the compound of the present invention was considered by using the intracellular calcium ion concentration increase reaction induced when the prostaglandin D2 was added to KB8 cells.
Fluo-4-AM (4-(6-acetoxymethoxy-2,7-difluoro-3-oxo-9-xanthenyl)-4′-methyl-2,2′-(ethylenedioxy)dianilide-N,N,N′,N′-tetraacetic acid tetrakis(acetoxymethyl) ester (SIGMA, final concentration: 1 μM) was added to KB8 cells, and the cells were incubated at 37° C. for 30 min, washed with phosphate buffer (Invitrogen), and then suspended in Hank's balanced salt solution (Invitrogen)) containing a reaction buffer solution (10 mM HEPES (Invitrogen), and 1 mM calcium chloride (SIGMA). The suspension was dispensed in a 96 well plate (Nunc) so that 2×10^5 cells/well were placed, and the compound of the present invention and PGD2 (final concentration: 100 nM) were added. The fluorescence intensity thereof was measured over time by using FDSS6000 (Hamamatsu Photonics), and thus the maximum fluorescence intensity value “d” was obtained. The same procedure was carried out in the absence of the compound, and the maximum fluorescence intensity value “e” was obtained; and the same procedure was carried out in the absence of the compound and […], and the maximum fluorescence intensity value “f” was obtained.
The calcium ion concentration increase inhibition rate of a compound was calculated by the following calculation formula: Inhibitory rate(%)=[1−(d−f)/(e−f)]×100
That is to say, by using calcium ion concentration increase inhibitory rates of compounds to be tested having various concentrations, the IC50 value was calculated according to a dose-dependent inhibition curve analyzed by using XLfit (IDBS) as a data analysis software, and the value was defined as an indicator of the antagonist activity. In Tables, A denotes an inhibitory activity showing the IC50 value of less than 50 nM; B denotes an inhibitory activity showing the IC50 value of 50 nM or greater and less than 500 nM; C denotes an inhibitory activity showing the IC50 value of 500 nM or greater and less than 1000 nM; and D denotes an inhibitory activity showing the IC50 value of 1000 nM or greater.

| IC50 | Structure (SMILES) |
| --- | --- |
| 2.3 nM | O=C(O)Cc1cnc(C(=O)c2ccc(NC(=O)c3cc4cc(F)ccc4[nH]3)cc2)c2ccccc12 [Example 122] |

Same assay, conditions: PGD2 final concentration 100 nM, Fluo-4-AM fluorescence, read-out: antagonist activity (IC50 value, inhibition of calcium ion concentration increase)

| IC50 | Structure (SMILES) |
| --- | --- |
| < 50 nM | COc1ccc2[nH]c(C(=O)Nc3ccc(C(=O)c4ncc(CC(=O)O)c5ccccc45)cc3)cc2c1 [Example 96] |
| ≥ 1000 nM | O=C(O)Cc1cnc(C(=O)c2ccc(NC(=O)c3c[nH]cn3)cc2)c2ccccc12 [Example 97] |
| ≥ 1000 nM | O=C(O)Cc1cnc(C(=O)c2ccc(NC(=O)c3cccnn3)cc2)c2ccccc12 [Example 98] |
| < 50 nM | Cc1ccc(C(=O)Nc2ccc(C(=O)c3ncc(CC(=O)O)c4ccccc34)cc2)cc1Cl [Example 99] |
| < 50 nM | COc1cc(C(=O)Nc2ccc(C(=O)c3ncc(CC(=O)O)c4ccccc34)cc2)ccc1C [Example 100] |
| < 50 nM | Cc1ccc(C(=O)Nc2ccc(C(=O)c3ncc(CC(=O)O)c4ccccc34)cc2)cc1C [Example 101] |
| < 50 nM | Cc1ccc2sc(C(=O)Nc3ccc(C(=O)c4ncc(CC(=O)O)c5ccccc45)cc3)cc2c1 [Example 102] |
| < 50 nM | Cc1cc(C)cc(C(=O)Nc2ccc(C(=O)c3ncc(CC(=O)O)c4ccccc34)cc2)c1 [Example 103] |
| ≥ 1000 nM | O=C(O)Cc1cnc(C(=O)c2ccc(NC(=O)c3cccc4cccnc34)cc2)c2ccccc12 [Example 104] |
| 500 to 1000 nM | O=C(O)Cc1cnc(C(=O)c2ccc(NC(=O)c3ccc4cccnc4n3)cc2)c2ccccc12 [Example 105] |
| 50 to 500 nM | COc1ccc(C(=O)Nc2ccc(C(=O)c3ncc(CC(=O)O)c4ccccc34)cc2)cc1OC [Example 106] |
| < 50 nM | Cc1cc(C(=O)Nc2ccc(C(=O)c3ncc(CC(=O)O)c4ccccc34)cc2)ccc1Cl [Example 107] |
| < 50 nM | COc1ccc(C(=O)Nc2ccc(C(=O)c3ncc(CC(=O)O)c4ccccc34)cc2)cc1Cl [Example 108] |
| 50 to 500 nM | NS(=O)(=O)c1ccc(C(=O)Nc2ccc(C(=O)c3ncc(CC(=O)O)c4ccccc34)cc2)cc1 [Example 109] |
| < 50 nM | CCCOc1ccc(C(=O)Nc2ccc(C(=O)c3ncc(CC(=O)O)c4ccccc34)cc2)cc1 [Example 110] |
| < 50 nM | CC(C)(C)c1ccc(C(=O)Nc2ccc(C(=O)c3ncc(CC(=O)O)c4ccccc34)cc2)cc1 [Example 111] |
| < 50 nM | O=C(O)Cc1cnc(C(=O)c2ccc(NC(=O)c3cnc4ccccc4c3)cc2)c2ccccc12 [Example 112] |
| < 50 nM | O=C(O)Cc1cnc(C(=O)c2ccc(NC(=O)c3cc4ccccc4cn3)cc2)c2ccccc12 [Example 113] |
| < 50 nM | O=C(O)Cc1cnc(C(=O)c2ccc(NC(=O)c3ccc(C4CCCCC4)cc3)cc2)c2ccccc12 [Example 114] |
| < 50 nM | CC(C)Oc1ccc(C(=O)Nc2ccc(C(=O)c3ncc(CC(=O)O)c4ccccc34)cc2)cc1 [Example 115] |
| < 50 nM | O=C(O)Cc1cnc(C(=O)c2ccc(NC(=O)c3ccc4occc4c3)cc2)c2ccccc12 [Example 116] |
| 500 to 1000 nM | O=C(O)Cc1cnc(C(=O)c2ccc(NC(=O)c3ccc4nccnc4c3)cc2)c2ccccc12 [Example 117] |
| 500 to 1000 nM | O=C(O)Cc1cnc(C(=O)c2ccc(NC(=O)c3cc(F)c(F)c(F)c3F)cc2)c2ccccc12 [Example 118] |
| < 50 nM | O=C(O)Cc1cnc(C(=O)c2ccc(NC(=O)c3cc4ccccc4s3)cc2)c2ccccc12 [Example 119] |
| < 50 nM | CCCCCCc1ccc(C(=O)Nc2ccc(C(=O)c3ncc(CC(=O)O)c4ccccc34)cc2)cc1 [Example 120] |
| 50 to 500 nM | O=C(O)Cc1cnc(C(=O)c2ccc(NC(=O)c3cn4ccccc4n3)cc2)c2ccccc12 [Example 121] |

| IC50 | Structure (SMILES) |
| --- | --- |
| < 50 nM | O=C(O)Cc1cnc(C(=O)c2ccc(NC(=O)c3cc4cc(F)ccc4[nH]3)cc2)c2ccccc12 [Example 122] |
| < 50 nM | Cn1c(C(=O)Nc2ccc(C(=O)c3ncc(CC(=O)O)c4ccccc34)cc2)cc2ccccc21 [Example 123] |
| 500 to 1000 nM | O=C(O)Cc1cnc(C(=O)c2ccc(NC(=O)c3ccc4cnccc4n3)cc2)c2ccccc12 [Example 124] |
| 500 to 1000 nM | Cc1c(F)c(F)c(C(=O)Nc2ccc(C(=O)c3ncc(CC(=O)O)c4ccccc34)cc2)c(F)c1F [Example 125] |
| < 50 nM | O=C(O)Cc1cnc(C(=O)c2ccc(NC(=O)Cc3c[nH]c4ccccc34)cc2)c2ccccc12 [Example 126] |
| < 50 nM | O=C(O)Cc1cnc(C(=O)c2ccc(C(=O)Nc3ccc(Cl)cc3)cc2)c2ccccc12 [Example 140] |
| ≥ 1000 nM | O=C(O)Cc1cnc(C(=O)c2ccc(Oc3ccccc3)cc2)c2ccccc12 [Example 145] |
| 50 to 500 nM | O=C(O)Cc1cnc(C(=O)c2ccc(COCCc3ccc(Cl)cc3)cc2)c2ccccc12 [Example 146, {1-[(4-{[2-(4-chlorophenyl)ethoxy]methyl}phenyl)carbonyl]isoquinolin-4-yl}acetic acid] |
| ≥ 1000 nM | O=C(O)Cc1cnc(C(=O)c2ccc(CNCc3ccc(Cl)cc3)cc2)c2ccccc12 [Example 147, {1-[(4-{[(4-chlorobenzyl)amino]methyl}phenyl)carbonyl]isoquinolin-4-yl}acetic acid hydrochloride] |
| 500 to 1000 nM | O=C(O)Cc1cnc(Cc2ccc(OCCc3ccc(Cl)cc3)cc2)c2ccccc12 [Example 149, (1-{4-[2-(4-chlorophenyl)ethoxy]benzyl}isoquinolin-4-yl)acetic acid] |
| 50 to 500 nM | O=C(O)Cc1cnc(Cc2ccc(OCCCc3ccc(Cl)cc3)cc2)c2ccccc12 [Example 150] |
| 50 to 500 nM | O=C(O)Cc1cnc(Cc2ccc(OCCOc3ccc(Cl)cc3)cc2)c2ccccc12 [Example 151] |
| 50 to 500 nM | O=C(O)Cc1cnc(Cc2ccc(S(=O)(=O)NCCc3ccc(Cl)cc3)cc2)c2ccccc12 [Example 152, [1-(4-{[2-(4-chlorophenyl)ethyl]sulfamoyl}benzyl)isoquinolin-4-yl]acetic acid] |
| 50 to 500 nM | O=C(O)Cc1cnc(Cc2ccc(C(=O)NCc3ccc(Cl)cc3)cc2)c2ccccc12 [Example 154] |
| < 50 nM | O=C(O)Cc1cnc(Cc2ccc(C(=O)NCCc3cccc(Cl)c3)cc2)c2ccccc12 [Example 155] |
| 50 to 500 nM | COc1ccc(CCNC(=O)c2ccc(Cc3ncc(CC(=O)O)c4ccccc34)cc2)cc1 [Example 156] |
| < 50 nM | COc1ccc(CCNC(=O)c2ccc(Cc3ncc(CC(=O)O)c4ccccc34)cc2)cc1Cl [Example 157] |
| < 50 nM | O=C(O)Cc1cnc(Cc2ccc(C(=O)Nc3ccc(Cl)c(Cl)c3)cc2)c2ccccc12 [Example 158] |
| < 50 nM | O=C(O)Cc1cnc(Cc2ccc(C(=O)Nc3ccc(Cl)cc3)cc2)c2ccccc12 [Example 159] |
| < 50 nM | O=C(O)Cc1cnc(Cc2ccc(C(=O)NCCc3ccc(Cl)c(Cl)c3)cc2)c2ccccc12 [Example 160] |
| 50 to 500 nM | O=C(O)Cc1cnc(Cc2ccc(C(=O)NCCc3ccccc3)cc2)c2ccccc12 [Example 161, (1-{4-[(2-phenylethyl)carbamoyl]benzyl}isoquinolin-4-yl)acetic acid] |
| < 50 nM | O=C(O)Cc1cnc(Cc2ccc(C(=O)NCCc3ccccc3Cl)cc2)c2ccccc12 [Example 162] |
| < 50 nM | O=C(O)Cc1cnc(Cc2ccc(C(=O)NCCCc3ccc(Cl)cc3)cc2)c2ccccc12 [Example 164] |
| < 50 nM | Cc1ccc(CCNC(=O)c2ccc(Cc3ncc(CC(=O)O)c4ccccc34)cc2)cc1 [Example 165] |
| < 50 nM | Cc1cccc(CCNC(=O)c2ccc(Cc3ncc(CC(=O)O)c4ccccc34)cc2)c1 [Example 166] |
| < 50 nM | Cc1ccccc1CCNC(=O)c1ccc(Cc2ncc(CC(=O)O)c3ccccc23)cc1 [Example 167] |
